From patent US11576884B2, “Amino acid compositions and uses thereof” (University of Florida Research Foundation, Incorporated, priority 2016, dated 2023)

Test system: Lgr5
Assay: Western blot for Lgr5 protein
Assay type: in vivo, NIH Swiss mice
Settings: individual amino acid by gastric gavage (300 ul OD) for 6 days; 0 Gy and 5 Gy irradiated mice
Procedure: For FIGS. 9-13, the data is from Male NIH Swiss mice (8 weeks) treated with individual amino acids (FIG. 9 (valine); FIG. 10 (tryptophan); FIG. 11 (serine); FIG. 12 (tyrosine); FIG. 13 (threonine)), as by gastric savage (300 ul OD) for a period of 6 days. Animals were sacrificed on day 6 by CO2 euthanasia and tissues collected for resolving the protein by western blot analysis. Lgr5 (100 KD) was used as the marker for crypt stem cell proliferation. These experiments are repeated at least 4 times (data shown) from 4 different mice.
Control groups were given normal saline. […] Mice fasted for 8 hours prior to gavage.
Signals were detected with Odyssey CLX from LI-COR.

CC(C)[C@H](N)C(=O)O [valine]
Lgr5 protein levels: increases
